Source: ChEMBL document CHEMBL4732145, “Discovery of a PROTAC targeting ALK with in vivo activity” (Eur J Med Chem, 2021)

Tests used:
A549 = assay: Antiproliferative activity against human A549 cells assessed as reduction in cell viability measured after 72 hrs by MTT assay; details: A549, 72 h
NCI-H2228 = assay: Antiproliferative activity against human NCI-H2228 cells assessed as reduction in cell viability measured after 72 hrs by MTT assay; details: NCI-H2228, 72 h
NCI-H1299 = assay: Antiproliferative activity against human NCI-H1299 cells assessed as reduction in cell viability measured after 72 hrs by MTT assay; details: NCI-H1299, 72 h
NCI-H3122 [1] = assay: Antiproliferative activity against human NCI-H3122 cells assessed as reduction in cell viability measured after 72 hrs by MTT assay; details: NCI-H3122, 72 h
LO2 (Homo sapiens) = assay: Cytotoxicity against human L02 cells assessed as reduction in cell viability measured after 72 hrs by MTT assay; details: l02, 72 h
HeLa = assay: Antiproliferative activity against human HeLa cells assessed as reduction in cell viability measured after 72 hrs by MTT assay
[2] = molecular target: von Hippel-Lindau disease tumor suppressor/ALK tyrosine kinase receptor/Nucleophosmin (Homo sapiens) (UniProt Q9UM73+P06748+P40337); assay: Protac activity at VHL/NPM-ALK fusion protein in human SU-DHL-1 cells assessed as induction of NPM-ALK fusion protein degradation at 1 uM by Western blot analysis relative to control; assay type: cell-based
von Hippel-Lindau disease tumor suppressor/ALK tyrosine kinase receptor/Nucleophosmin (Homo sapiens), sequence (P06748 whole entry partner, the tested form may be a part): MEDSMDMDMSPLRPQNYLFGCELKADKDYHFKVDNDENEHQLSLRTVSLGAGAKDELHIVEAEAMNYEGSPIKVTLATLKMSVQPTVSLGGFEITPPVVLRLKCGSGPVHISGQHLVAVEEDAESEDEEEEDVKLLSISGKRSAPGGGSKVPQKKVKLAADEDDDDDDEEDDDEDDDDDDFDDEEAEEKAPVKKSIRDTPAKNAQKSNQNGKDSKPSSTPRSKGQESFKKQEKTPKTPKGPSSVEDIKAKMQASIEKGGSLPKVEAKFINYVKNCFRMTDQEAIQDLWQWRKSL
von Hippel-Lindau disease tumor suppressor/ALK tyrosine kinase receptor/Nucleophosmin (Homo sapiens), sequence (P40337 whole entry partner, the tested form may be a part): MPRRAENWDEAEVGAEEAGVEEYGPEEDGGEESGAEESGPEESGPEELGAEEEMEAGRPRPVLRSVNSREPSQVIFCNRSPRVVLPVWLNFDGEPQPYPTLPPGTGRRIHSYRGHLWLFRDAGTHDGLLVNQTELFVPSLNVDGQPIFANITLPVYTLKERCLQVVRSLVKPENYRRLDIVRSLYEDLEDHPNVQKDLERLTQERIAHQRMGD
von Hippel-Lindau disease tumor suppressor/ALK tyrosine kinase receptor/Nucleophosmin (Homo sapiens), sequence (Q9UM73 19-1620 limits assumed): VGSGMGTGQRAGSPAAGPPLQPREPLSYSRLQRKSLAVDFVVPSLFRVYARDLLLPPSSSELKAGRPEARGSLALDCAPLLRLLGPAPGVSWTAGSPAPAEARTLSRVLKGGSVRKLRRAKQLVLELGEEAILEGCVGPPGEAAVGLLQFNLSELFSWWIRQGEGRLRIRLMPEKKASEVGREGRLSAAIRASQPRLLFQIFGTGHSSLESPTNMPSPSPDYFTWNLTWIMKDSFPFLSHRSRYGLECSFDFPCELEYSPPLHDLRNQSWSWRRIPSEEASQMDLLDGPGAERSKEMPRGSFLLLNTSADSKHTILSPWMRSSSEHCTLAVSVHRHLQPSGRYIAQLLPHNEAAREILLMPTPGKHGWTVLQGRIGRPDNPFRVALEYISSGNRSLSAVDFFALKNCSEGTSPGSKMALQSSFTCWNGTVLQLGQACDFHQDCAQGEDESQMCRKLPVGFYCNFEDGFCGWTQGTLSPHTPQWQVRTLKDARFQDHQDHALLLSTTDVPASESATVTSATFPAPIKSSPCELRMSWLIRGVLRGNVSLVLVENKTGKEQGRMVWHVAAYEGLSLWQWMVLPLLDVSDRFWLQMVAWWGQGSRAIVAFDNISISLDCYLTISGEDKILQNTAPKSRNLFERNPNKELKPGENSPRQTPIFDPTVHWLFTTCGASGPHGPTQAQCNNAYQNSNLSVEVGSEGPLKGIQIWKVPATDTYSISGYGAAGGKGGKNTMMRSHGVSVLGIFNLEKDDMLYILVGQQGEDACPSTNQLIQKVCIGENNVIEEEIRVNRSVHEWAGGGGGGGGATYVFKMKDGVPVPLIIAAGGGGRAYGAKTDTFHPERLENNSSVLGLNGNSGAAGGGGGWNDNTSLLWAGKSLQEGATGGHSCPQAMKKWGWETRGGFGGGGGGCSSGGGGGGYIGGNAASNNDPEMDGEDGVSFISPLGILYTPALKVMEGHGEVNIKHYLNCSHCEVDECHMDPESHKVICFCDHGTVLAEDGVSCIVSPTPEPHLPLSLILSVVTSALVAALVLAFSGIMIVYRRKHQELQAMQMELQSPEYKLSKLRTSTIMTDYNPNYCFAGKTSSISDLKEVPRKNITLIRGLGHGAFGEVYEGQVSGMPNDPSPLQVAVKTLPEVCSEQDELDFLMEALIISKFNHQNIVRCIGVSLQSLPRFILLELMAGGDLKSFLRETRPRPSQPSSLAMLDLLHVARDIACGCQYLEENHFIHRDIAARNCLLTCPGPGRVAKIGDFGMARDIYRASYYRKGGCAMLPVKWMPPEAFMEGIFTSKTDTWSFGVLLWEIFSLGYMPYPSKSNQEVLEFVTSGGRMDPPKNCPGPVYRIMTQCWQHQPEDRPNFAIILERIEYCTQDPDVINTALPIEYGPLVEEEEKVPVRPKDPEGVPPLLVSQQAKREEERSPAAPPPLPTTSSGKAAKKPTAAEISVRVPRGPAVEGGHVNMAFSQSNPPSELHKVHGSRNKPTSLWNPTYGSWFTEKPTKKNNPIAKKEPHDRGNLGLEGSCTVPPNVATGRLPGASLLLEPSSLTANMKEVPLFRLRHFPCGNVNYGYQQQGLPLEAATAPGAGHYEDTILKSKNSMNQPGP

NCI-H3122 [3] = assay: Antitumor activity against human NCI-H3122 cells xenografted in BALB/c nude mouse assessed as tumor growth inhibition at 25 mg/kg/day, ig administered for 15 days relative to control; assay type: functional; details: NCI-H3122, po, 360 h, time 15 day, read-out: TGI

| Structure (SMILES) | IC50 (A549) | IC50 (NCI-H2228) | IC50 (NCI-H1299) | IC50 (NCI-H3122 [1]) | IC50 (HeLa) | Activity [2] | Activity (LO2 (Homo sapiens)) | inhibition in vivo at 25 mg/kg/day (NCI-H3122 [3]) |
| --- | --- | --- | --- | --- | --- | --- | --- | --- |
| Cc1cc(Nc2ncc(Cl)c(Nc3ccccc3S(=O)(=O)C(C)C)n2)c(OC(C)C)cc1C1CCN(CCC(=O)NCCCCCCCCNCC(=O)Nc2cccc3c2C(=O)N(C2CCC(=O)NC2=O)C3=O)CC1 (centres undefined) | > 20 µM | 15.1 µM | > 20 µM | 2.66 µM | 7.67 µM |  | Toxic |  |
| Cc1cc(Nc2ncc(Cl)c(Nc3ccccc3S(=O)(=O)C(C)C)n2)c(OC(C)C)cc1C1CCN(CCC(=O)NCCOCCOCCNc2cccc3c2C(=O)N(C2CCC(=O)NC2=O)C3=O)CC1 (centres undefined) | 2.6 µM | 3.5 µM | 7.59 µM | 0.7 µM | 2.23 µM |  | Toxic |  |
| Cc1cc(Nc2ncc(Cl)c(Nc3ccccc3S(=O)(=O)C(C)C)n2)c(OC(C)C)cc1C1CCN(CCC(=O)NCCOCCNCC(=O)Nc2cccc3c2C(=O)N(C2CCC(=O)NC2=O)C3=O)CC1 (centres undefined) | 6.73 µM | 5.74 µM | 7.23 µM | 1.83 µM | 5.78 µM |  | Toxic |  |
| Cc1cc(Nc2ncc(Cl)c(Nc3ccccc3S(=O)(=O)C(C)C)n2)c(OC(C)C)cc1C1CCNCC1 [CERITINIB] | 1.32 µM | 1.3 µM | 2.92 µM |  | 0.94 µM |  |  | 49% |
| Cc1cc(Nc2ncc(Cl)c(Nc3ccccc3S(=O)(=O)C(C)C)n2)c(OC(C)C)cc1C1CCN(CCC(=O)NCCOCCNCCC(=O)Nc2cccc3c2C(=O)N(C2CCC(=O)NC2=O)C3=O)CC1 (centres undefined) | 10.9 µM | 5.2 µM | 12.3 µM | 4.86 µM | 7.98 µM |  | Toxic |  |
| Cc1cc(Nc2ncc(Cl)c(Nc3ccccc3S(=O)(=O)C(C)C)n2)c(OC(C)C)cc1C1CCN(CCC(=O)NCCOCCOCCNCC(=O)Nc2cccc3c2C(=O)N(C2CCC(=O)NC2=O)C3=O)CC1 (centres undefined) | 5.81 µM | 4.51 µM | 10.9 µM | 2.34 µM | 5.86 µM |  | Toxic |  |

Further lines, with some results ahead:

| IC50 (A549) | IC50 (NCI-H2228) | IC50 (NCI-H1299) | IC50 (NCI-H3122 [1]) | IC50 (HeLa) | Activity [2] | Structure (SMILES) | Activity (LO2 (Homo sapiens)) | inhibition in vivo at 25 mg/kg/day (NCI-H3122 [3]) |
| --- | --- | --- | --- | --- | --- | --- | --- | --- |
| > 20 µM | > 20 µM | 9.33 µM | 1.3 µM | 6.99 µM |  | Cc1cc(Nc2ncc(Cl)c(Nc3ccccc3S(=O)(=O)C(C)C)n2)c(OC(C)C)cc1C1CCN(CCC(=O)NCCCCNC(=O)COc2cccc3c2C(=O)N(C2CCC(=O)NC2=O)C3=O)CC1 (centres undefined) | Toxic |  |
| 5.13 µM | 3.1 µM | > 20 µM | 1.1 µM | 4.36 µM |  | Cc1cc(Nc2ncc(Cl)c(Nc3ccccc3S(=O)(=O)C(C)C)n2)c(OC(C)C)cc1C1CCN(CCC(=O)NCCCCCCNCC(=O)Nc2cccc3c2C(=O)N(C2CCC(=O)NC2=O)C3=O)CC1 (centres undefined) | Toxic |  |
|  |  |  |  |  | > 90% | Cc1cc(Nc2ncc(Cl)c(Nc3ccccc3S(=O)(=O)C(C)C)n2)c(OC(C)C)cc1C1CCN(C(=O)CCCC(=O)N[C@H](C(=O)N2C[C@H](O)C[C@H]2C(=O)NCc2ccc(-c3scnc3C)cc2)C(C)(C)C)CC1 |  |  |
| 13.4 µM | 8.7 µM | > 20 µM | 3.52 µM | 8.15 µM |  | Cc1cc(Nc2ncc(Cl)c(Nc3ccccc3S(=O)(=O)C(C)C)n2)c(OC(C)C)cc1C1CCN(CCC(=O)NCCCCNCC(=O)Nc2cccc3c2C(=O)N(C2CCC(=O)NC2=O)C3=O)CC1 (centres undefined) | Toxic |  |
